According to patent US10010614B2, “Derivatives of GLP-1 like peptides, and uses thereof” (Novo Nordisk A/S, priority 2013, dated 2018):
Read-outs that look alike come from different tables or passages of the source. Numbered stars: 1 amine (or outer) side, 2 acyl side, 3 side chain; on linkers, the order of the positions; unused ones are H or OH. Square brackets hold non-standard residues; d marks the D form. Side chains are listed from the residue outwards. Peptide text beside a SMILES is read from it. * marks the point of attachment. X1 = O=C(O)CCCCCCCCCCCCCCCCCCC(=O)NCC1CCC(C(=O)*)CC1; C22 diacid = O=C(O)CCCCCCCCCCCCCCCCCCCCC(=O)*; C20 diacid = O=C(O)CCCCCCCCCCCCCCCCCCC(=O)*; γGlu = O=C(O)[C@H](CCC(=O)[*:2])N[*:1]; εLys = N[C@@H](CCCCN[*:1])C(=O)[*:2]; Trx = NC[C@H]1CC[C@H](C(=O)O)CC1; AEEA = NCCOCCOCC(=O)O; Aib = CC(C)(N)C(=O)O

Key:
human GLP-1 receptor [1] = target: T1, human GLP-1 receptor (Homo sapiens, UniProt P43220); assay: GLP-1 receptor binding, competitive binding assay (125I-GLP-1, SPA) on isolated membranes;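 note: test compounds added at a range of concentrations to membranes from cells expressing the human GLP-1 receptor, scored by displacement of labelled ligand, read with WGA SPA beads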
T1 construct: expressed in transfected cells; host or cells: membranes prepared from BHK cells (parent line BHKTS13), clone FCW467-12A
Method: The purpose of this example is to test the receptor binding of the GLP-1 derivatives in vitro. The receptor binding is a measure of affinity of a derivative for the human GLP-1 receptor.
In this type of assay a labelled ligand (in this case ^125I-GLP-1) is bound to the receptor. Each derivative is added in a series of concentrations to isolated membranes containing the human GLP-1 receptor and displacement of the labelled ligand is monitored. The receptor binding is reported as the concentration at which half of the labelled ligand is displaced from the receptor, the IC50 value.
The following chemicals were used in the assay: Human serum albumin (HSA) (Sigma A1653), DMEM w/o phenol red (Gibco 11880-028), Pen/strep (Invitrogen 15140-122), G418 (Invitrogen 10131-027), 1 M Hepes (Gibco 15630), EDTA (Invitrogen 15575-038), PBS (Invitrogen 14190-094), fetal calf serum (Invitrogen 16140-071), EGTA, MgCl2 (Merck 1.05832.1000), Tween 20 (Amresco 0850C335), SPA particles (wheat germ agglutinin (WGA) SPA beads, Perkin Elmer RPNQ0001), [^125I]-GLP-1]-(7-36)NH2 (produced in-house), OptiPlate™-96 (Packard 6005290).
Buffer 1 consisted of 20 mM Na-HEPES plus 10 mM EDTA and pH was adjusted to 7.4. Buffer 2 consisted of 20 mM Na-HEPES plus 0.1 mM EDTA and pH was adjusted to 7.4. Assay buffer consisted of 50 mM HEPES supplemented with 5 mM EGTA, 5 mM MgCl2, 0.005% Tween 20 and pH was adjusted to 7.4. An 8% albumin stock consisted of HSA dissolved at 8% (w/v) in assay buffer. An 0.02% albumin stock consisted of HSA dissolved at 0.02% (w/v) in assay buffer.
The cells express the human GLP-1 receptor.
The cells were grown at 5% CO2 in DMEM, 10% fetal calf serum, 1% Pen/Strep (Penicillin/Streptomycin) and 1.0 mg/ml of the selection marker G418.
To make a membrane preparation the cells were grown to approximately 80% confluence. The cells were washed twice in phosphate-buffered saline and harvested. The cells were pelleted using a brief centrifugation and the cell pellet was kept on ice. The cell pellet was homogenised with ULTRA-THURRAX™ dispersing instrument for 20-30 seconds in a suitable amount of buffer 1 (e.g., 10 ml). The homogenate was centrifuged for 15 minutes. The pellet was re-suspended (homogenised) in 10 ml buffer 2 and centrifuged. This step was repeated once more. The resulting pellet was re-suspended in buffer 2 and the protein concentration was determined. The membranes were aliquoted and stored at minus 80° C.
For the receptor binding assay in the presence of low HSA (0.005%) 50 μl of the assay buffer was added to each well of an assay plate.
For the receptor binding assay in the presence of high HSA (2%) 50 μl of the 8% albumin stock was added to each well of an assay plate.
Cell membrane aliquots were thawed and diluted to their working concentration. Fifty μl were added to each well in the assay plate.
WGA SPA beads were suspended in assay buffer at 20 mg/ml. The suspension was diluted to 10 mg/ml in assay buffer just prior to addition to the assay plate. Fifty μl were added to each well in the assay plate.
The incubation was started by adding 25 μl of 480 pM solution of [^125I]-GLP-1]-(7-36)NH2 to each well of the assay plate. A 25 μl aliquot was reserved for measuring total counts/well.
The assay plate was incubated for 2 h at 30° C.
The assay plate was centrifuged for 10 min.
The assay plate was read in a Packard TopCount NXT instrument.
The data from the TopCount instrument were transferred to GraphPad Prism software. The software averaged the values for the replicates and performed a non-linear regression. IC50 values were calculated by the software and reported in nM.

[2] = Pharmacokinetic study in minipigs (i.v.); assay type: in vivo; conditions: male, Göttingen, minipig, plasma, iv; read-out: Terminal half-live (converted)
Method: The purpose of this study is to determine the protraction in vivo of the GLP-1 derivatives after i.v. administration to minipigs, i.e. the prolongation of their time in the body and thereby their time of action. This is done in a pharmacokinetic (PK) study, where the terminal half-life of the derivative in question is determined. By terminal half-life is meant the time it takes to halve a certain plasma concentration in the terminal elimination phase.
The derivatives of Examples 1-5 were dosed with 2 nmol/kg, the derivative of Example 6 was dosed with 5 nmol/kg, and the derivatives of Examples 7-9 were dosed with 15 nmol/kg.
Male Göttingen minipigs were obtained from Ellegaard Göttingen Minipigs (Dalmose, Denmark) approximately 7-14 months of age and weighing approximately 16-35 kg were used in the studies. The minipigs were housed either individually (pigs with permanent catheters) or in a group and fed restrictedly once or twice daily with SDS minipig diet (Special Diets Services, Essex, UK).
After at least 2 weeks of acclimatisation two permanent central venous catheters were implanted in vena cava caudalis or cranialis in each animal. The animals were allowed 1 week recovery after the surgery, and were then used for repeated pharmacokinetic studies with a suitable wash-out period between successive GLP-1 derivative dosings.
The GLP-1 derivatives were dissolved in 50 mM sodium phosphate, 70-145 mM sodium chloride, 0.05% tween 80, pH 7.4 to a concentration of usually from 20-60 nmol/ml.
Intravenous injections (the volume corresponding to for example 0.050-0.125 ml/kg) of the compounds were given through one catheter or through the venflon, and blood was sampled at predefined time points for up till 25 days post dosing (preferably through the other catheter or by venipuncture). Blood samples (for example 0.8 ml) were collected in EDTA buffer (8 mM) and then centrifuged at 4° C. and 1942G for 10 minutes.
Plasma was pipetted into Micronic tubes on dry ice, and kept at −20° C. until analysed for plasma concentration of the respective GLP-1 compound using LOCI. Individual plasma concentration-time profiles were analyzed by a non-compartmental pharmacokinetic method in Phoenix v. 6.2 (Pharsight Inc., Mountain View, Calif., USA), or other relevant software for PK analysis, and the resulting terminal half-lives (harmonic mean) determined.

human GLP-1 receptor [3] = target: T1, human GLP-1 receptor; assay: In vitro potency, CRE luciferase reporter gene assay in BHK cells expressing the human GLP-1 receptor; assay type: cell-based; conditions: whole cell reporter gene assay, 3 h incubation, no HSA, averages of at least two replicates
Method in brief: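 Stably transfected BHK cells (5×10^3/well) expressing human GLP-1R with a CRE-luciferase reporter; compounds diluted in buffer with 2% ovalbumin and 0.2% Pluronic F-68, final 1×10^−7 to 1×10^−14 M. Incubated 3 h at 37 °C, 5% CO2, then luminescence read; potency from non-linear log(agonist)–response fit, mean of ≥2 replicates.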

T1 sequence (P43220 24-463): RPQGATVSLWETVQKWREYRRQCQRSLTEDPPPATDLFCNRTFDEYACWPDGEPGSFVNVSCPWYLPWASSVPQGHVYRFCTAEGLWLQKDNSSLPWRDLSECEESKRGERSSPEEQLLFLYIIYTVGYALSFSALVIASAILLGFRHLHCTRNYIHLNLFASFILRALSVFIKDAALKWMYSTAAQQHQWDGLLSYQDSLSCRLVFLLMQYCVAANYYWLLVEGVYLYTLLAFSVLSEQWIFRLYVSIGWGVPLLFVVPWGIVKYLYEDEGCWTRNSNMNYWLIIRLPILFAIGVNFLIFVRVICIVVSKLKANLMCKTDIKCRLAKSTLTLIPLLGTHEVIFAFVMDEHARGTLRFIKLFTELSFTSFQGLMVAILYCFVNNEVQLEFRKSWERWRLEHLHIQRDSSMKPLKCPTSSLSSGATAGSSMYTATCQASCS

IC50 (human GLP-1 receptor [1]; high serum albumin (2.0% HSA final assay concentration), read-out: High HSA IC50) [nM] | IC50 (human GLP-1 receptor [1]; low serum albumin (max. 0.001% final assay concentration), read-out: Low HSA IC50) [nM] | SMILES | half-life [2] [h] | EC50 (human GLP-1 receptor [3]) [nM] | IC50 (human GLP-1 receptor [1]; High HSA IC50 (nM), high serum albumin (2.0% HSA final assay concentration)) [nM] | IC50 (human GLP-1 receptor [1]; Low HSA IC50 (nM), low serum albumin (max. 0.001% final assay concentration)) [nM]
383 | 0.43 | CC[C@H](C)[C@H](NC(=O)[C@H](Cc1ccccc1)NC(=O)[C@H](CCCCNC(=O)[C@@H](N)CCCCNC(=O)[C@@H](N)CCCCNC(=O)CC[C@H](NC(=O)CCCCCCCCCCCCCCCCCCC(=O)O)C(=O)O)NC(=O)[C@H](CCCNC(=N)N)NC(=O)[C@H](C)NC(=O)[C@H](C)NC(=O)[C@H](CCC(N)=O)NC(=O)[C@H](CCC(=O)O)NC(=O)[C@H](CCC(=O)O)NC(=O)[C@H](CC(C)C)NC(=O)[C@H](Cc1ccc(O)cc1)NC(=O)[C@H](CO)NC(=O)[C@H](CO)NC(=O)[C@@H](NC(=O)[C@H](CC(=O)O)NC(=O)[C@H](CO)NC(=O)[C@@H](NC(=O)[C@H](Cc1ccccc1)NC(=O)[C@@H](NC(=O)CNC(=O)[C@H](CCC(=O)O)NC(=O)C(C)(C)NC(=O)[C@@H](N)Cc1c[nH]cn1)[C@@H](C)O)[C@@H](C)O)C(C)C)C(=O)N[C@@H](C)C(=O)N[C@@H](Cc1c[nH]c2ccccc12)C(=O)N[C@@H](CC(C)C)C(=O)N[C@H](C(=O)N[C@@H](CCCNC(=N)N)C(=O)NCC(=O)N[C@@H](CCCNC(=N)N)C(=O)NCC(=O)NCC(=O)NCC(=O)NCC(=O)N[C@@H](CO)C(=O)N[C@@H](CCCCNC(=O)[C@@H](N)CCCCNC(=O)[C@@H](N)CCCCNC(=O)CC[C@H](NC(=O)CCCCCCCCCCCCCCCCCCC(=O)O)C(=O)O)C(=O)O)C(C)C [Example 8, N{Epsilon-27}-[(2S)-2-amino-6-[[(2S)-2-amino-6-[[(4S)-4-carboxy-4-(19-carboxynonadecanoylamino)butanoyl]amino]hexanoyl]amino]hexanoyl]-[Aib8,Glu22,Arg26,Lys27,Arg34]-GLP-1-(7-37)-peptidyl-Gly-Gly-Gly-Ser-N{Epsilon}[(2S)-2-amino-6-[[(2S)-2-amino-6-[[(4S)-4-carboxy-4-(19-carboxynonadecanoylamino)butanoyl]amino]hexanoyl]amino]hexanoyl]Lys] (H-H[Aib]EGTFTSDVSSYLEEQAARK([εLys-εLys-γGlu-C20 diacid])FIAWLVRGRGGGGSK([εLys-εLys-γGlu-C20 diacid])-OH) | 137 | 0.26 | – | –
– | – | CC[C@H](C)[C@H](NC(=O)[C@H](Cc1ccccc1)NC(=O)[C@H](CCC(=O)O)NC(=O)[C@H](CCCNC(=N)N)NC(=O)[C@H](C)NC(=O)[C@H](C)NC(=O)[C@H](CCC(N)=O)NC(=O)[C@H](CCC(=O)O)NC(=O)[C@H](CCC(=O)O)NC(=O)[C@H](CC(C)C)NC(=O)[C@H](Cc1ccc(O)cc1)NC(=O)[C@H](CO)NC(=O)[C@H](CO)NC(=O)[C@@H](NC(=O)[C@H](CC(=O)O)NC(=O)[C@H](CO)NC(=O)[C@@H](NC(=O)[C@H](Cc1ccccc1)NC(=O)[C@@H](NC(=O)CNC(=O)[C@H](CCC(=O)O)NC(=O)C(C)(C)NC(=O)[C@@H](N)Cc1c[nH]cn1)[C@@H](C)O)[C@@H](C)O)C(C)C)C(=O)N[C@@H](C)C(=O)N[C@@H](Cc1c[nH]c2ccccc12)C(=O)N[C@@H](CC(C)C)C(=O)N[C@H](C(=O)N[C@@H](CCCNC(=N)N)C(=O)NCC(=O)N[C@@H](CCCNC(=N)N)C(=O)NCC(=O)N[C@@H](CCCCNC(=O)COCCOCCNC(=O)COCCOCCNC(=O)CC[C@H](NC(=O)[C@H]1CC[C@H](CNC(=O)CCCCCCCCCCCCCCCCCCCCC(=O)O)CC1)C(=O)O)C(=O)NCC(=O)NCC(=O)N[C@@H](CO)C(=O)N[C@@H](CCCCNC(=O)COCCOCCNC(=O)COCCOCCNC(=O)CC[C@H](NC(=O)[C@H]1CC[C@H](CNC(=O)CCCCCCCCCCCCCCCCCCCCC(=O)O)CC1)C(=O)O)C(=O)O)C(C)C [Example 9] (H-H[Aib]EGTFTSDVSSYLEEQAAREFIAWLVRGRGK([AEEA-AEEA-γGlu-Trx-C22 diacid])GGSK([AEEA-AEEA-γGlu-Trx-C22 diacid])-OH) | 167 | 0.101 | 21 | 1.6
– | – | CC[C@H](C)[C@H](NC(=O)[C@H](Cc1ccccc1)NC(=O)[C@H](CCC(=O)O)NC(=O)[C@H](CCCNC(=N)N)NC(=O)[C@H](C)NC(=O)[C@H](C)NC(=O)[C@H](CCCCNC(=O)COCCOCCNC(=O)COCCOCCNC(=O)CC[C@H](NC(=O)C1CCC(CNC(=O)CCCCCCCCCCCCCCCCCCC(=O)O)CC1)C(=O)O)NC(=O)[C@H](CCC(=O)O)NC(=O)[C@H](CCC(=O)O)NC(=O)[C@H](CC(C)C)NC(=O)[C@H](Cc1ccc(O)cc1)NC(=O)[C@H](CO)NC(=O)[C@H](CO)NC(=O)[C@@H](NC(=O)[C@H](CC(=O)O)NC(=O)[C@H](CO)NC(=O)[C@@H](NC(=O)[C@H](Cc1ccccc1)NC(=O)[C@@H](NC(=O)CNC(=O)[C@H](CCC(=O)O)NC(=O)C(C)(C)NC(=O)[C@@H](N)Cc1c[nH]cn1)[C@@H](C)O)[C@@H](C)O)C(C)C)C(=O)N[C@@H](C)C(=O)N[C@@H](Cc1c[nH]c2ccccc12)C(=O)N[C@@H](CC(C)C)C(=O)N[C@H](C(=O)N[C@@H](CCCNC(=N)N)C(=O)NCC(=O)N[C@@H](CCCNC(=N)N)C(=O)NCC(=O)NCC(=O)NCC(=O)NCC(=O)N[C@@H](CO)C(=O)N[C@@H](CCCCNC(=O)COCCOCCNC(=O)COCCOCCNC(=O)CC[C@H](NC(=O)C1CCC(CNC(=O)CCCCCCCCCCCCCCCCCCC(=O)O)CC1)C(=O)O)C(=O)O)C(C)C (stereo partly shown) [Example 4] (H-H[Aib]EGTFTSDVSSYLEEK([AEEA-AEEA-γGlu-X1])AAREFIAWLVRGRGGGGSK([AEEA-AEEA-γGlu-X1])-OH; N-terminus and C-terminus assumed) | 137 | – | – | –
– | – | CC[C@H](C)[C@H](NC(=O)[C@H](Cc1ccccc1)NC(=O)[C@H](CCCCNC(=O)COCCOCCNC(=O)COCCOCCNC(=O)CC[C@H](NC(=O)C1CCC(CNC(=O)CCCCCCCCCCCCCCCCCCC(=O)O)CC1)C(=O)O)NC(=O)[C@H](CCCNC(=N)N)NC(=O)[C@H](C)NC(=O)[C@H](C)NC(=O)[C@H](CCC(N)=O)NC(=O)[C@H](CCC(=O)O)NC(=O)[C@H](CCC(=O)O)NC(=O)[C@H](CC(C)C)NC(=O)[C@H](Cc1ccc(O)cc1)NC(=O)[C@H](CO)NC(=O)[C@H](CO)NC(=O)[C@@H](NC(=O)[C@H](CC(=O)O)NC(=O)[C@H](CO)NC(=O)[C@@H](NC(=O)[C@H](Cc1ccccc1)NC(=O)[C@@H](NC(=O)CNC(=O)[C@H](CCC(=O)O)NC(=O)C(C)(C)NC(=O)[C@@H](N)Cc1c[nH]cn1)[C@@H](C)O)[C@@H](C)O)C(C)C)C(=O)N[C@@H](C)C(=O)N[C@@H](Cc1c[nH]c2ccccc12)C(=O)N[C@@H](CC(C)C)C(=O)N[C@H](C(=O)N[C@@H](CCCNC(=N)N)C(=O)NCC(=O)N[C@@H](CCCNC(=N)N)C(=O)NCC(=O)NCC(=O)NCC(=O)NCC(=O)N[C@@H](CO)C(=O)N[C@@H](CCCCNC(=O)COCCOCCNC(=O)COCCOCCNC(=O)CC[C@H](NC(=O)C1CCC(CNC(=O)CCCCCCCCCCCCCCCCCCC(=O)O)CC1)C(=O)O)C(=O)O)C(C)C (stereo partly shown) [Example 1] (H-H[Aib]EGTFTSDVSSYLEEQAARK([AEEA-AEEA-γGlu-X1])FIAWLVRGRGGGGSK([AEEA-AEEA-γGlu-X1])-OH; N-terminus and C-terminus assumed) | 121 | – | – | –
